The source of these data is ChEMBL document CHEMBL4393671, “Design of a Cyclin G Associated Kinase (GAK)/Epidermal Growth Factor Receptor (EGFR) Inhibitor Set to Interrogate the Relationship of EGFR and GAK in Chordoma” (J Med Chem, 2019).

Active and inactive are the calls of the source. The calls are words filed in the database; no cut-off is given here.

Assay [1] deals with T1, Epidermal growth factor receptor (Homo sapiens, UniProt P00533). As to the kind of experiment: Inhibition of EGFR in human UCH2 cells assessed as reduction in EGF-induced EGFR phosphorylation at Y1068 residue at 1 uM preincubated for 4 hrs followed by EGF--stimulation and measured after 15 mins by Western blot analysis relative to control. Type of assay: cell-based.
T1 sequence (P00533 whole entry): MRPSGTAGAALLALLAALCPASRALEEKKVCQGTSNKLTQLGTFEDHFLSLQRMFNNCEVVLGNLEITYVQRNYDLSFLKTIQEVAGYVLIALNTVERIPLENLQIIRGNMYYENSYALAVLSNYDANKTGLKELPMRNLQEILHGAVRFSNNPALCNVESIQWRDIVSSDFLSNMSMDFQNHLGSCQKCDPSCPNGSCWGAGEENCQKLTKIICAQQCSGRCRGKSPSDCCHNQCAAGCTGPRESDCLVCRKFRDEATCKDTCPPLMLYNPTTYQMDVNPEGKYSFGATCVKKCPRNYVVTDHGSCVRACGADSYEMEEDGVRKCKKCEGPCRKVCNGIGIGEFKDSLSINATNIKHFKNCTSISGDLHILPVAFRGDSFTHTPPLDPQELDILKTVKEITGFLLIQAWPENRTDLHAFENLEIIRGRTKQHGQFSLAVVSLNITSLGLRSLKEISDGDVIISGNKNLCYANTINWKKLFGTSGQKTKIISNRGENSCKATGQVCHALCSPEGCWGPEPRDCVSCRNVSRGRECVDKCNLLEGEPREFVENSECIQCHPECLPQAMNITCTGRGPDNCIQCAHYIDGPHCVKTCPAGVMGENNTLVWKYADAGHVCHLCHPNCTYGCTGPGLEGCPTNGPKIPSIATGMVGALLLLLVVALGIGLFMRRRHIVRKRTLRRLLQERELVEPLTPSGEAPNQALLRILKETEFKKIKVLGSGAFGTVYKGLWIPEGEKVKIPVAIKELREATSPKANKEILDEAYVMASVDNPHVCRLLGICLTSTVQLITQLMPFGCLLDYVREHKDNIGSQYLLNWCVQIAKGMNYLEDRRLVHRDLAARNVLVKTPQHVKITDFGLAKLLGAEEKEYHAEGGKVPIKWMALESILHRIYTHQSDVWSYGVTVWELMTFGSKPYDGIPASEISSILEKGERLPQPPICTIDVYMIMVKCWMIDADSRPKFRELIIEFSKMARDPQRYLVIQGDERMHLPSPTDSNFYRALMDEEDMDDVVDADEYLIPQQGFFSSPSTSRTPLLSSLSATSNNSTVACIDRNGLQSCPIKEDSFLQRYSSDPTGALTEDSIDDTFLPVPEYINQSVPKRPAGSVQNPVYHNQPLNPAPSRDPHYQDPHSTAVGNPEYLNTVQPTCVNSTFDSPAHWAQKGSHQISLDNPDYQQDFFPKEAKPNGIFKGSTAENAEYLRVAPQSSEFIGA
The target in assay [2] is T2, Cyclin-G-associated kinase (Homo sapiens) (UniProt O14976).
T2 sequence (whole entry): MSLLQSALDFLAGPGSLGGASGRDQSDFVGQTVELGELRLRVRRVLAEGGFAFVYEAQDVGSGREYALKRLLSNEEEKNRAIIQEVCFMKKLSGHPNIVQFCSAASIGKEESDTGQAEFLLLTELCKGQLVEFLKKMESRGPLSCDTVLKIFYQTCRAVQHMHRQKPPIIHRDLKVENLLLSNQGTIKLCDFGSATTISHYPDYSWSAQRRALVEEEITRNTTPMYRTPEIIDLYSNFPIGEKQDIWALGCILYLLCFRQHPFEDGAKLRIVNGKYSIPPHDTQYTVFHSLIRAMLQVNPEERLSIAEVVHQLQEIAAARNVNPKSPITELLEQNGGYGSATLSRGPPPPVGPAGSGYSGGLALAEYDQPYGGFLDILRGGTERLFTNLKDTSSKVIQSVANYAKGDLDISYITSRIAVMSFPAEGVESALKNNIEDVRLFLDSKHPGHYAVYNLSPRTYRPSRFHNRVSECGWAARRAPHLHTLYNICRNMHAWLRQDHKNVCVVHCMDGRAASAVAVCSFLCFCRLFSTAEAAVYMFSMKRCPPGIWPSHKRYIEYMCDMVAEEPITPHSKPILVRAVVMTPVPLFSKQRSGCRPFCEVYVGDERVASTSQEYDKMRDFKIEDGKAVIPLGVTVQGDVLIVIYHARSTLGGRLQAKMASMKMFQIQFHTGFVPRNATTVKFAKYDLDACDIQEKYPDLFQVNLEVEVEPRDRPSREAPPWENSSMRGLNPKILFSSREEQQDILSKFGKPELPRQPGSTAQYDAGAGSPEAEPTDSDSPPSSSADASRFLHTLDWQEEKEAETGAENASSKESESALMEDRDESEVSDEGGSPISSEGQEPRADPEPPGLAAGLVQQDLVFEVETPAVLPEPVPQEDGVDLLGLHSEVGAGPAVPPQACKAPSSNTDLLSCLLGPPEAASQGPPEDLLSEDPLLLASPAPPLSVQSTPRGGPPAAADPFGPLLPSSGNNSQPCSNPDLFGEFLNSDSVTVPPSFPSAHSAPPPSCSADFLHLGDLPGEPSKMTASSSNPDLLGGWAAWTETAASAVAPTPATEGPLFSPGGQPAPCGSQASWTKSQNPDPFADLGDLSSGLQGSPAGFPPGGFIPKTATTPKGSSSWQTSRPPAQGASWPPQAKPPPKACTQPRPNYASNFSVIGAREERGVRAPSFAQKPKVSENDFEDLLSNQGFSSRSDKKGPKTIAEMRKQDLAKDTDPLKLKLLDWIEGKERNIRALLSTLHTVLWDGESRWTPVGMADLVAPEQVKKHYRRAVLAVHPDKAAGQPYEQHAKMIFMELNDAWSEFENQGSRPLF
As to the kind of experiment: Binding affinity to GAK in human SUM159 cell lysates by multiplexed inhibitor bead profiling-based LC-MS/MS analysis. To be noted: Lysate. Type of assay: subcellular.

Assay [3] deals with T3, Cyclin-G-associated kinase (Homo sapiens, UniProt O14976).
T3 sequence (O14976 whole entry): T2 sequence (whole entry)
As to the kind of experiment: Inhibition of tracer 5 binding to human N-terminal nano luciferase-fused GAK expressed in HEK293 cells measured after 2 hrs by nanoBRET assay. Type of assay: cell-based. To be noted: hek293.

The target in assay [4] is T4, STE20-related kinase adapter protein alpha (Homo sapiens) (UniProt Q7RTN6).
T4 sequence (whole entry): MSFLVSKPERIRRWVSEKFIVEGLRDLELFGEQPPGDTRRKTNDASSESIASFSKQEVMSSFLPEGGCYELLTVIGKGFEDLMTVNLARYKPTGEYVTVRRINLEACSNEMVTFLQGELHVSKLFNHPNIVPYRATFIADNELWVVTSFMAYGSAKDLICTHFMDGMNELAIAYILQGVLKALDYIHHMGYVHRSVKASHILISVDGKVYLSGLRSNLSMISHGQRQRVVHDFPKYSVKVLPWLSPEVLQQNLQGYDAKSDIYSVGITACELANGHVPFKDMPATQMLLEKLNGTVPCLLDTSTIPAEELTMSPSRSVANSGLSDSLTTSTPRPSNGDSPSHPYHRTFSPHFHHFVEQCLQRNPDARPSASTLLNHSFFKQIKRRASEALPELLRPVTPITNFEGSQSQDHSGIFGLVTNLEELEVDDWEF
As to the kind of experiment: Binding affinity to LYK5 in human SUM159 cell lysates by multiplexed inhibitor bead profiling-based LC-MS/MS analysis. Type of assay: subcellular. Particulars: Lysate.

Assay [5] deals with T1, Epidermal growth factor receptor. Briefly: Inhibition of EGFR in human UCH2 cells assessed as reduction in EGF-induced EGFR phosphorylation at Y1068 residue at 10 uM preincubated for 4 hrs followed by EGF--stimulation and measured after 15 mins by Western blot analysis relative to control. Type of assay: cell-based.
The target of assay [6] is T3, Cyclin-G-associated kinase. Briefly: Binding affinity to wild-type human partial length GAK (G13 to Y338 residues) expressed in bacterial expression system by Kinomescan method.

For the molecule `C#Cc1cccc(Nc2ccnc3cc(OC)c(OC)cc23)c1`, the inhibition in assay [1] was 0%; in assay [5] it was 71.3%. The outcome in assay [2] and in assay [4] was Active. The molecule further returned an IC50 in assay [3] of 500 nM. In addition, in assay [6], binding was put at a Kd of 7.6 nM.
